Measurements: patent US20070078083A1, “MODULATION OF NEUORGENESIS BY HDac INHIBITION” (BrainCells, Inc., priority 2005, published 2007)

What was measured:
[1] = tested on: Group I or Group III receptors; conditions: at sub-mM concentrations; cited from earlier work
mGluR3 = mGluR3 (Homo sapiens, UniProt Q14832); conditions: antagonist; read-out: IC50 value against mGluR3; cited from earlier work
mGluR2 = mGluR2 (Homo sapiens, UniProt Q14416); conditions: antagonist; read-out: IC50 value against mGluR2; cited from earlier work
Chain of mGluR2 (Q14416 19-872): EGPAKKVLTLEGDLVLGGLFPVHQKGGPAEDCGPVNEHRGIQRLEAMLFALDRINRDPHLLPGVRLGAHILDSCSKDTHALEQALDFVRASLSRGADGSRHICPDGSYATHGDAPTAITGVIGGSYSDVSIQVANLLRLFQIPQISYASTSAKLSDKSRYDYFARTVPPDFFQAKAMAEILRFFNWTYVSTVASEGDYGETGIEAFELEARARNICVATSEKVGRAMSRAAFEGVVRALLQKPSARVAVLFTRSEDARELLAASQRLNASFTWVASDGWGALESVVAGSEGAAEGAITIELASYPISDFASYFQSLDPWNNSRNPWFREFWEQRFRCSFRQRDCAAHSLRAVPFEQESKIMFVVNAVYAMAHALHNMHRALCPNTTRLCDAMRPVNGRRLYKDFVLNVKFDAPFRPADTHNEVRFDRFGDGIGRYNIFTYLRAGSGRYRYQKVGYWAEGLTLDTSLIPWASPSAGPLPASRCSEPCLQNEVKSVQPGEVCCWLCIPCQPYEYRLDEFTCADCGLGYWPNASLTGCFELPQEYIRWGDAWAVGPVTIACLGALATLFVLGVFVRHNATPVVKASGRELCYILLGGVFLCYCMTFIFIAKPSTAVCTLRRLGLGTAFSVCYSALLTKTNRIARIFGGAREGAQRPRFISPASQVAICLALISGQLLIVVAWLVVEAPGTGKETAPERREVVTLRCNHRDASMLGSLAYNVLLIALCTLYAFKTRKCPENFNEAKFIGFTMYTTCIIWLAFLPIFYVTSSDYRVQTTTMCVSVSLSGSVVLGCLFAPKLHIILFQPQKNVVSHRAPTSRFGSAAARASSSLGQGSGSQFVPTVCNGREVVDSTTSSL

[2] = tested on: KA, AMPA, and NMDA iGlu receptors; conditions: cited from earlier work
human mGlu2 = human mGlu2 (Homo sapiens, UniProt Q14416); conditions: agonist; low nanomolar range; read-out: EC50 values against human mGlu2 receptors in vitro; cited from earlier work
Chain of human mGlu2 (Q14416 19-872): as above

human mGlu3 = human mGlu3 (Homo sapiens, UniProt Q14832); conditions: agonist; low nanomolar range; read-out: EC50 values against human mGlu3 receptors in vitro; cited from earlier work
Chain of human mGlu3 (Q14832 23-879): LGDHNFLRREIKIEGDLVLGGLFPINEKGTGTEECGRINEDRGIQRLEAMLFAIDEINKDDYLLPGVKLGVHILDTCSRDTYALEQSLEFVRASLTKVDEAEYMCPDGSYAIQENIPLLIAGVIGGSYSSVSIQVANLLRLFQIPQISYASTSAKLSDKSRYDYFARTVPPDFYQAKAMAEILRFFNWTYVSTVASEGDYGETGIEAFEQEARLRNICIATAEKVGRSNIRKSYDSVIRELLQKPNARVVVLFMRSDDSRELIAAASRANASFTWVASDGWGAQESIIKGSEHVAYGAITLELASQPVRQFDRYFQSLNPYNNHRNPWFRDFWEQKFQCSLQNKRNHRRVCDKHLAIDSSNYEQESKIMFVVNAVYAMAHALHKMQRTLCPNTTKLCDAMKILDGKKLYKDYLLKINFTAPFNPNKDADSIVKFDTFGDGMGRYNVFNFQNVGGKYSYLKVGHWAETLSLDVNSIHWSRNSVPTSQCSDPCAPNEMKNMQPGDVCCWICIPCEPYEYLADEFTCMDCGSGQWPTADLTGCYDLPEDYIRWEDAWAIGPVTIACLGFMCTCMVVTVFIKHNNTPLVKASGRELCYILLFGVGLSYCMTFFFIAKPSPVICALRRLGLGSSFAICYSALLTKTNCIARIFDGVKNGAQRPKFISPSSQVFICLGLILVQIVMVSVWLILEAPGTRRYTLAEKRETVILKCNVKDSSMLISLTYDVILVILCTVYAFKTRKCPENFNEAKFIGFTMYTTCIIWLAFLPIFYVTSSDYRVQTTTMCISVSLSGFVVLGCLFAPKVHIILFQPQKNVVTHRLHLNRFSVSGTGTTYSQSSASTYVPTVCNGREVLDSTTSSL

[3] = tested on: rat NeuroD1, GluR2, NFH and GAP43 promoters; test: In vitro rodent gene reporter assay in rNSC; format: cell-based; conditions: 2 days incubation
Excerpt: Briefly, cultured rodent neural stem cells (rNSC) were transfected by electroporation with a vectors containing promoters specific for the rat NeuroD1, GluR2, NFH and GAP43 genes linked to the fluorescent reporter protein DsRed. All gene reporter constructs were cloned in the same lentiviral vector backbone, and mixed with Nucleofactor solution for electroporation. A GFP vector control was used in parallel to visualize effectiveness of electroporation. Transfected rNSCs were then suspended in test media containing varying concentrations of the HDac inhibitors trichostatin A, valproic acid, MS-275 or apicidin, and a mixture of 0.5 μg renilla luciferase and 5 μg promoter-specific […] luciferase. The cells were incubated in 5% CO2 at 37° C. for 2 days, and then lysed, whereupon the cell extracts were read on a Tecan Genios Pro reader to detect the promoter-specific activation of the reporter constructs.

[4] = tested on: human neural stem cells (hNSCs); test: Neuronal differentiation of human neural stem cells (TUJ-1 staining); format: cell-based; conditions: for differentiation along a neuronal lineage (in words): hNSCs
[5] = tested on: human neural stem cells (hNSCs); test: Astrocyte differentiation of hNSCs (GFAP staining); format: cell-based; conditions: cultured hNSCs
Excerpt: Results are shown in FIGS. 2 and 11, which show the lack of astrocyte differentiation of human neural stem cells in the presence of trichostatin A and valproic acid, respectively.

[6] = tested on: neural stem and/or progenitor cells in the dentate gyrus; test: In vivo chronic dosing study, BrdU-positive cells in dentate gyrus; parameters: species or system rat; conditions: male Fischer F344 rats, 300 mg/kg for 28 days, vs vehicle
Description: Male Fischer F344 rats were treated with 300 mg/kg of valproic acid for 28 days, and then anesthetized and killed by transcardial perfusion of 4% paraformaldehyde at day 28. Brains were rapidly removed and stored in 4% paraformaldehyde for 24 hours and then equilibrated in phosphate buffered 30% sucrose. Free floating 40 micron sections were collected on a freezing microtome and stored in cyroprotectant. Antibodies against BrdU and cells types of interest (e.g., neurons, astrocytes, oligodendrocytes, endothelial cells) were used for detection of cell survival and differentiation. […] The proportion of BrdU cells displaying a lineage-specific phenotype was determined by scoring the co-localization of cell phenotype markers with BrdU using confocal microscopy. […] When possible, 100 or more BrdU-positive cells were scored for each maker per animal. Each cell was manually examined in first full “z”-dimension and only those cells for which the nucleus was unambiguously associated with the lineage-specific marker were scored as positive. The total number of BrdU-labeled cells per hippocampal granule cell layer and subgranular zone were determined using diaminobenzadine stained tissues. Overestimation was corrected using the Abercrombie method for nuclei with empirically determined average diameter of 13 um within a 40 um section.

[7] = tested on: human neural stem cells (hNSCs); test: Anti-proliferative effects on human neural stem cell clusters (area over fourteen days); format: cell-based; conditions: hNSC clusters after 14 days; basal media control 164%
Excerpt: 7, 2006 (incorporated by reference). […] Cell clusters were imaged and their area measured over fourteen days. […] As the results described in Example 3 indicate, reduction in growth is not due to increased toxicity or reduced survival, and therefore the observed reduced growth of the cell clusters results from decreased proliferation of human neural stem cells in the presence of the HDac inhibitor.

Chain of mGluR3 (Q14832 23-879): as above

NC1(C(=O)O)CCc2cc(P(=O)(O)O)ccc21 (racemic) [APICA, (RS)-1-amino-5-phosphonoindan-1-carboxylic acid]
activity against Group I or Group III receptors [1]: no appreciable activity
IC50 (mGluR3): ~30 µM
IC50 (mGluR2): ~30 µM

N[C@](CC1c2ccccc2Oc2ccccc21)(C(=O)O)[C@H]1C[C@@H]1C(=O)O [LY341495, (2S)-2-amino-2-(1S,2S-2-carboxycycloprop-1-yl)-3-(xanth-9-yl) propanoic acid]
activity against KA, AMPA, and NMDA iGlu receptors [2]: substantially inactive

N[C@@]1(C(=O)O)CO[C@H]2[C@H](C(=O)O)[C@H]21 [LY379268, (−)-2-Oxa-4-aminobicyclohexane-4,6-dicarboxylic acid]
EC50 (human mGlu2): < 0.01 µM
EC50 (human mGlu3): < 0.01 µM

Nc1ccccc1NC(=O)c1ccc(CNC(=O)OCc2cccnc2)cc1 [MS-275]
expression of promoters for the neurofilament high (NFH) and growth associated protein 43 (GAP43) genes [3]: promote expression
neurogenic activity, activation of the rat NeuroD1, GluR2, NFH and GAP43 promoters [3]: neurogenic

CC(/C=C/C(=O)NO)=C\[C@@H](C)C(=O)c1ccc(N(C)C)cc1 [Trichostatin A, trichostatin A]
EC50 ([4]; cultured hNSCs, two experiments (Run A, Run B), normalized to neuronal positive control): ~0.00345 µM
differentiation along a neuronal lineage (in words) [4]: permits differentiation of cells along a neuronal lineage
EC50 ([5]; highest concentration tested approximately 31.6 nM): > 0.0316 µM

CCCC(CCC)C(=O)O [Valproic acid, 2-propylpentanoic acid]
proliferation in the dentate gyrus (proportion of BrdU-positive cells) [6]: significantly decreased proliferation
differentiation along a neuronal lineage (in words) [4]: continues to promote neuronal differentiation
EC50 ([5]; Homo sapiens, Neural stem cell, highest tested concentration approximately 10.0 μM): > 10 µM
area occupied by cells, percent of the starting area [7]: 86%
expression of promoters for the neurofilament high (NFH) and growth associated protein 43 (GAP43) genes [3]: promote expression
neurogenic activity, activation of the rat NeuroD1, GluR2, NFH and GAP43 promoters [3]: neurogenic
